The values below are quoted from earlier work in patent publication US20040132743A1 (DR. REDDY'S LABORATORIES LIMITED DR. REDDY'S LABORATORIES, …, priority 2002, published 2004).

For series [1] the following is noted: in vivo.
The conditions of series [2]: studies in patients.
The conditions of series [3]: amorphous form compared with crystalline form.

Regarding `O=C(O)COCCN1CCN([C@H](c2ccccc2)c2ccc(Cl)cc2)CC1` [Levocetirizine], the “side effects on the central nervous system” value in series [1] is listed as “free from side effects on the central nervous system”.
Consider `O=C(O)COCCN1CCN(C(c2ccccc2)c2ccc(Cl)cc2)CC1` (racemic) [cetirizine], for which the “symptomatic relief of seasonal allergies” value in series [2] was “safe and effective, symptomatic relief of seasonal allergies”.
With `CO/N=C(\C(=O)N[C@@H]1C(=O)N2C(C(=O)OC(C)OC(C)=O)=C(COC(N)=O)CS[C@H]12)c1ccco1` (stereo partly drawn) [amorphous form of cefuroxime axetil, cefuroxime axetil], the bioavailability result in series [3] is “higher bioavailability than its crystalline form”.
